From PubChem BioAssay (NCI)
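Five concentrations, 48 hours, 96-well plates. TGI marks complete inhibition of growth.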

Experiments:
Experiment in all cases: growth of human tumour cells (NCI), 48 h
786-0 renal = test system: 786-0 renal
A498 renal = test system: A498 renal
A549 NSCLC = test system: A549 NSCLC
ACHN renal = test system: ACHN renal
BT-549 breast = test system: BT-549 breast
CAKI-1 renal = test system: CAKI-1 renal
COLO 205 colon = test system: COLO 205 colon
DU-145 prostate = test system: DU-145 prostate
EKVX NSCLC = test system: EKVX NSCLC
HCC-2998 colon = test system: HCC-2998 colon
HCT-116 colon = test system: HCT-116 colon
HCT-15 colon = test system: HCT-15 colon
HL-60(TB) leukemia = test system: HL-60(TB) leukemia
HOP-62 NSCLC = test system: HOP-62 NSCLC
HOP-92 NSCLC = test system: HOP-92 NSCLC
HS 578T breast = test system: HS 578T breast
HT29 colon = test system: HT29 colon
IGROV1 ovarian = test system: IGROV1 ovarian
K-562 leukemia = test system: K-562 leukemia
KM12 colon = test system: KM12 colon
LOX IMVI melanoma = test system: LOX IMVI melanoma
M14 melanoma = test system: M14 melanoma
MALME-3M melanoma = test system: MALME-3M melanoma
MCF7 breast = test system: MCF7 breast
MDA-MB-231 breast = test system: MDA-MB-231 breast
MDA-MB-435 = test system: MDA-MB-435
MDA-N = test system: MDA-N
MOLT-4 leukemia = test system: MOLT-4 leukemia
NCI-H226 lung = test system: NCI-H226 lung
NCI-H23 lung = test system: NCI-H23 lung
NCI-H460 lung = test system: NCI-H460 lung
NCI-H522 lung = test system: NCI-H522 lung
NCI/ADR-RES ovarian = test system: NCI/ADR-RES ovarian
OVCAR-3 ovarian = test system: OVCAR-3 ovarian
OVCAR-4 ovarian = test system: OVCAR-4 ovarian
OVCAR-5 ovarian = test system: OVCAR-5 ovarian
OVCAR-8 ovarian = test system: OVCAR-8 ovarian
PC-3 prostate = test system: PC-3 prostate
RPMI-8226 leukemia = test system: RPMI-8226 leukemia
RXF 393 renal = test system: RXF 393 renal
SF-268 CNS = test system: SF-268 CNS
SF-295 CNS = test system: SF-295 CNS
SF-539 CNS = test system: SF-539 CNS
SK-MEL-2 melanoma = test system: SK-MEL-2 melanoma
SK-MEL-28 melanoma = test system: SK-MEL-28 melanoma
SK-MEL-5 melanoma = test system: SK-MEL-5 melanoma
SK-OV-3 ovarian = test system: SK-OV-3 ovarian
SN12C renal = test system: SN12C renal
SNB-19 CNS = test system: SNB-19 CNS
SNB-75 CNS = test system: SNB-75 CNS
SR leukemia = test system: SR leukemia
SW-620 colon = test system: SW-620 colon
T-47D breast = test system: T-47D breast
TK-10 renal = test system: TK-10 renal
U251 CNS = test system: U251 CNS
UACC-257 melanoma = test system: UACC-257 melanoma
UACC-62 melanoma = test system: UACC-62 melanoma
UO-31 renal = test system: UO-31 renal

**Q.** `Clc1ccc(-c2nn3c(COc4cccc(OCc5nnc6sc(-c7ccc(Cl)cc7)nn56)c4)nnc3s2)cc1` was tested. Which TGI (786-0 renal) did it give?
**A.** 59.9 µM

**Q.** And the TGI (A498 renal)?
**A.** 61.8 µM

**Q.** And the TGI (A549 NSCLC)?
**A.** 73.2 µM

**Q.** And the TGI (ACHN renal)?
**A.** 68.4 µM

**Q.** What about the TGI (BT-549 breast) of the same compound?
**A.** > 100 µM

**Q.** And the TGI (CAKI-1 renal)?
**A.** 48.8 µM

**Q.** And the TGI (COLO 205 colon)?
**A.** 82.9 µM

**Q.** And the TGI (DU-145 prostate)?
**A.** 74.3 µM

**Q.** What about the TGI (EKVX NSCLC) of the same compound?
**A.** 56.8 µM

**Q.** And the TGI (HCC-2998 colon)?
**A.** 96.2 µM

**Q.** And the TGI (HCT-116 colon)?
**A.** 44.7 µM

**Q.** And the TGI (HCT-15 colon)?
**A.** > 100 µM

**Q.** What about the TGI (HL-60(TB) leukemia) of the same compound?
**A.** 53.6 µM

**Q.** And the TGI (HOP-62 NSCLC)?
**A.** > 100 µM

**Q.** What about the TGI (HOP-92 NSCLC) of the same compound?
**A.** > 100 µM

**Q.** And the TGI (HS 578T breast)?
**A.** > 100 µM

**Q.** What about the TGI (HT29 colon) of the same compound?
**A.** 60.2 µM

**Q.** And the TGI (IGROV1 ovarian)?
**A.** > 100 µM

**Q.** What about the TGI (K-562 leukemia) of the same compound?
**A.** > 100 µM

**Q.** And the TGI (KM12 colon)?
**A.** > 100 µM

**Q.** What about the TGI (LOX IMVI melanoma) of the same compound?
**A.** > 100 µM

**Q.** What about the TGI (M14 melanoma) of the same compound?
**A.** 75.9 µM

**Q.** And the TGI (MALME-3M melanoma)?
**A.** 50.4 µM

**Q.** And the TGI (MCF7 breast)?
**A.** 27.2 µM

**Q.** And the TGI (MDA-MB-231 breast)?
**A.** > 100 µM

**Q.** And the TGI (MDA-MB-435)?
**A.** 41.7 µM

**Q.** And the TGI (MDA-N)?
**A.** 36.4 µM

**Q.** And the TGI (MOLT-4 leukemia)?
**A.** 74.6 µM

**Q.** What about the TGI (NCI-H226 lung) of the same compound?
**A.** > 100 µM

**Q.** What about the TGI (NCI-H23 lung) of the same compound?
**A.** 71.3 µM

**Q.** And the TGI (NCI-H460 lung)?
**A.** > 100 µM

**Q.** What about the TGI (NCI-H522 lung) of the same compound?
**A.** 55.3 µM

**Q.** And the TGI (NCI/ADR-RES ovarian)?
**A.** > 100 µM

**Q.** What about the TGI (OVCAR-3 ovarian) of the same compound?
**A.** 44 µM

**Q.** And the TGI (OVCAR-4 ovarian)?
**A.** 27.6 µM

**Q.** And the TGI (OVCAR-5 ovarian)?
**A.** 74.4 µM

**Q.** What about the TGI (OVCAR-8 ovarian) of the same compound?
**A.** > 100 µM

**Q.** What about the TGI (PC-3 prostate) of the same compound?
**A.** > 100 µM

**Q.** And the TGI (RPMI-8226 leukemia)?
**A.** > 100 µM

**Q.** And the TGI (RXF 393 renal)?
**A.** 77.6 µM

**Q.** What about the TGI (SF-268 CNS) of the same compound?
**A.** > 100 µM

**Q.** What about the TGI (SF-295 CNS) of the same compound?
**A.** > 100 µM

**Q.** What about the TGI (SF-539 CNS) of the same compound?
**A.** 49.5 µM

**Q.** What about the TGI (SK-MEL-2 melanoma) of the same compound?
**A.** > 100 µM

**Q.** What about the TGI (SK-MEL-28 melanoma) of the same compound?
**A.** 35.9 µM

**Q.** And the TGI (SK-MEL-5 melanoma)?
**A.** 50.7 µM

**Q.** What about the TGI (SK-OV-3 ovarian) of the same compound?
**A.** > 100 µM

**Q.** And the TGI (SN12C renal)?
**A.** 29.1 µM

**Q.** What about the TGI (SNB-19 CNS) of the same compound?
**A.** > 100 µM

**Q.** And the TGI (SNB-75 CNS)?
**A.** 73.5 µM

**Q.** And the TGI (SR leukemia)?
**A.** 88.9 µM

**Q.** And the TGI (SW-620 colon)?
**A.** > 100 µM

**Q.** And the TGI (T-47D breast)?
**A.** 57 µM

**Q.** And the TGI (TK-10 renal)?
**A.** > 100 µM

**Q.** What about the TGI (U251 CNS) of the same compound?
**A.** 61.3 µM

**Q.** What about the TGI (UACC-257 melanoma) of the same compound?
**A.** 62.1 µM

**Q.** And the TGI (UACC-62 melanoma)?
**A.** 77.1 µM

**Q.** What about the TGI (UO-31 renal) of the same compound?
**A.** 39.6 µM
